From publication PMC6422423, “Constitutively active BRS3 is a genuinely orphan GPCR in placental mammals” (PLoS Biology, 2019)

What was measured:
turtle BRS3 (tBRS3) [1] = experiment: Radioligand binding (competition); parameters: species or system Chrysemys picta; conditions: transfected HEK293 cells, 1 h 21°C, pH 7.4, mean ± SE, at least three experiments
Experimental: (§1) HEK293 cells were seeded in a 10-cm tissue culture dish at a density of 10^6 cells per dish and grown overnight at 37°C in growth medium. The following morning, 5 μg of different species’ BRS3 plasmids were transfected. After 6 h, the medium was replaced with growth medium. Cells were maintained at 37°C in a 5% CO2 atmosphere and used 48 h later for binding assays. The positive control group included transfected GRPR and NMBR; the test group consisted of transfected BRS3 from different species. Then, [^125I]-Tyr^42-GRP and [^125I]-Tyr-NMB were used as the ligands to assess affinity to the various receptors. […] The cell concentration was adjusted to between 0.05 and 4 × 10^6 cells/ml for each receptor such that less than 20% of the total added radioactive ligand was bound during the incubation, and the results were compared to cells transfected with GRPR or NMBR adjusted in concentration to bind a similar amount of ligand. After the incubation, 100 μl aliquots were added to 1.5-ml microfuge tubes, which contained 100 μl of binding buffer to determine the total radioactivity. The bound tracer was separated from unbound tracer by pelleting the cells through the binding buffer by centrifugation at 10,000g in a Microfuge E (Beckman) for 3 min. The supernatant was aspirated, and the pelleted cells were rinsed twice with a washing buffer that contained 1% (w/v) BSA in PBS. The amount of radioactivity bound to the cells was measured in a Cobra II Gamma counter (Packard Instruments). Binding was expressed as the percentage of total radioactivity that was associated with the cell pellet. All binding values represented saturable binding; nonsaturable binding was <15% of the total binding in all experiments. Each point was measured in duplicate, and each experiment was replicated at least four times. […] All the experiment data were calculated using 1 pM ligand-treated as 100% control.

spotted gar BRS3 (sBRS3) = experiment: Radioligand binding (competition); parameters: species or system Lepisosteus oculatus; conditions: transfected HEK293 cells, 1 h 21°C, pH 7.4, mean ± SE, at least three experiments
Experimental: as §1

[2] = target: placental mammalian BRS3 (hBRS3, mBRS3, and aBRS3); experiment: Radioligand binding, placental mammals pooled; parameters: species or system human, mouse, aardvark; conditions: for Ki: BRS3s in placental mammals; for Direct binding (in words): hBRS3, mBRS3, aBRS3, transfected HEK293 cells
Experimental: as §1

human BRS3 (hBRS3) [3] = experiment: Intracellular calcium assay (WT and mutants); format: cell-based; conditions: 10 nM peptide; for Calcium fold: HEK293, Fluo8, hBRS3; for Intracellular Ca2+, mutants vs wild type (in words): hBRS3 R127Q, S205P, and H294R, each
Experimental: (§2) Intracellular calcium was measured using the non-wash calcium assay Fluo8 kit (ab112129, Abcam) according to the manufacturer’s instructions. Briefly, HEK293 cells were seeded in 24-well plates and were transfected with GRPR, NMBR, BRS3, or the empty vector plasmid pcDNA3.1-V5-His (300 ng) and incubated overnight at 37°C with 5% CO2. The next day, the cells were replated into a 96-well assay plate (black plate and clear bottom). After 12 h, growth media were aspirated, and calcium dye was added. […] The basal fluorescence intensity was recorded 15 times at 1 Hz for […]. The results were normalized to the average basal fluorescence intensity in ratio, and the peak response was used for the result calculation. Calcium fold was calculated using no stimulation data as standard value.

mouse BRS3 (mBRS3) [4] = experiment: Intracellular calcium assay (WT and mutants); format: cell-based; conditions: for Calcium fold: 10 nM peptide, HEK293, Fluo8, mBRS3; for Intracellular Ca2+, mutants (in words): mBRS3 R127Q, S205P, and H294R, all three
Experimental: as §2

aardvark BRS3 (aBRS3) [5] = experiment: Intracellular calcium assay (WT and mutants); format: cell-based, Orycteropus afer; conditions: for Calcium fold: 10 nM peptide, HEK293, Fluo8, aBRS3; for Intracellular Ca2+, mutants (in words): aBRS3 R127Q, S205P, and H294R, all three
Experimental: as §2

turtle BRS3 (tBRS3) [6] = experiment: Intracellular calcium assay (WT and mutants); format: cell-based, Chrysemys picta; conditions: 10 nM peptide; for Calcium fold: HEK293, Fluo8, tBRS3; for Intracellular Ca2+, mutants vs wild type (in words): tBRS3 Q127R, P205S, and R294H, each
Experimental: as §2

human BRS3 (hBRS3) [7] = experiment: ERK1/2 phosphorylation (WT and mutants); format: cell-based
Experimental: (§3) For ERK1/2 phosphorylation, HEK293 cells were seeded in 24-well plates and transfected with GRPR, NMBR, BRS3, mutants of different species’ BRS3, or an empty vector plasmid, pcDNA3.1-V5-His plasmid (300 ng). […] Each sample with an equal amount of protein was mixed with 6×SDS sample buffer, boiled for 5 min, and separated on 10% SDS-polyacrylamide gel electrophoresis (PAGE) before transferring the proteins onto a PVDF membrane. The membranes were then blocked at room temperature for 1 h with 5% milk powder in Tris-buffered saline-Tween (TBST), followed by subsequent incubation at 4°C overnight in TBST containing the different primary antibodies (1:1,000 dilution). After washing three times (10 min each time) with TBST, the membranes were incubated for 1 h in TBST containing the secondary antibodies (1:2,000 dilution), followed by washing three times (10 min each time) with TBST, prior to detection by chemiluminescence.

mouse BRS3 (mBRS3) [8] = experiment: ERK1/2 phosphorylation (WT and mutants); format: cell-based; conditions: mBRS3 R127Q, S205P, and H294R, all three
Experimental: as §3

aardvark BRS3 (aBRS3) [9] = experiment: ERK1/2 phosphorylation (WT and mutants); format: cell-based, Orycteropus afer; conditions: aBRS3 R127Q, S205P, and H294R, all three
Experimental: as §3

[10] = system: BRS3 receptors of placental mammals; experiment: Luciferase reporter, GRP/NMB stimulated, placental pooled; format: cell-based, human, mouse, dog, and aardvark; conditions: CRE/NFAT-RE/SRF-RE/SRE reporters; 0/10/100/1,000 nM, 12 h, HEK293
Experimental: To detect constitutive activity of BRS3, HEK293 cells were seeded in 24-well plates and cotransfected with the CRE/NFAT-RE/SRF-RE/SRE luciferase reporter plasmids (50 ng), the BRS3 from different species, or BRS3 mutants with different doses (10 ng/50 ng/150 ng); after 24 h, cells were further incubated in serum-free media for another 12 h before luciferase assay. As for peptide supplementation treatment, HEK293 cells were cotransfected with the CRE/NFAT-RE/SRF-RE/SRE luciferase reporter plasmids (50 ng) and various genes (300 ng) of the bombesin receptor family. […] Luciferase activities were determined using luciferase assay kits (Beyotime, Shanghai, China) and normalized to β-galactosidase activity. All experiments were performed at least three times in triplicates. HEK293 cells transfected with pcDNA were used as a blank control in all luciferase experiments, and the fold was calculated compared to blank control.

GSHWAVGHLM-NH2 [GRP, gastrin-releasing peptide]
IC50 (turtle BRS3 (tBRS3) [1]; 50 pM [125I]-Tyr42-GRP): 0.14 nM | IC50 (turtle BRS3 (tBRS3) [1]; 50 pM [125I]-Tyr-NMB): 0.28 nM | IC50 (spotted gar BRS3 (sBRS3); 50 pM [125I]-Tyr42-GRP): 0.17 nM | IC50 (spotted gar BRS3 (sBRS3); 50 pM [125I]-Tyr-NMB): 0.54 nM | Ki [2]: > 1000 nM | Direct binding (in words) [2]: no binding was detected | Calcium fold (human BRS3 (hBRS3) [3]; replicate 1): 1.1274 fold | Calcium fold (human BRS3 (hBRS3) [3]; replicate 2): 1.2515 fold | Calcium fold (human BRS3 (hBRS3) [3]; replicate 3): 1.1684 fold | Intracellular Ca2+, mutants vs wild type (in words) (human BRS3 (hBRS3) [3]): remarkable increase of cellular Ca^2+ ions | Calcium fold (mouse BRS3 (mBRS3) [4]; replicate 1): 1.0113 fold | Calcium fold (mouse BRS3 (mBRS3) [4]; replicate 2): 1.0374 fold | Calcium fold (mouse BRS3 (mBRS3) [4]; replicate 3): 1.111 fold | Intracellular Ca2+, mutants (in words) (mouse BRS3 (mBRS3) [4]): significant increase in cellular Ca^2+ ions levels | Calcium fold (aardvark BRS3 (aBRS3) [5]; replicate 1): 1.0918 fold | Calcium fold (aardvark BRS3 (aBRS3) [5]; replicate 2): 1.1902 fold | Calcium fold (aardvark BRS3 (aBRS3) [5]; replicate 3): 1.2372 fold | Intracellular Ca2+, mutants (in words) (aardvark BRS3 (aBRS3) [5]): significant increase in cellular Ca^2+ ions levels | Calcium fold (turtle BRS3 (tBRS3) [6]; replicate 1): 5.1678 fold | Calcium fold (turtle BRS3 (tBRS3) [6]; replicate 2): 5.2199 fold | Calcium fold (turtle BRS3 (tBRS3) [6]; replicate 3): 5.5876 fold | Intracellular Ca2+, mutants vs wild type (in words) (turtle BRS3 (tBRS3) [6]): remarkable decrease of cellular Ca^2+ ions | ERK phosphorylation, mutant (in words) (human BRS3 (hBRS3) [7]; hBRS3 H294R): could be detected | ERK phosphorylation, mutant (in words) (human BRS3 (hBRS3) [7]; hBRS3 R127Q): could be detected | ERK phosphorylation, mutant (in words) (human BRS3 (hBRS3) [7]; hBRS3 S205P): the effect is not obvious | ERK phosphorylation, mutants (in words) (mouse BRS3 (mBRS3) [8]): lead to ERK phosphorylation signal | ERK phosphorylation, mutants (in words) (aardvark BRS3 (aBRS3) [9]): lead to ERK phosphorylation signal | Luciferase stimulation (in words) [10]: stimulation of luciferase units cannot be detected

neuromedin B [NMB]
IC50 (turtle BRS3 (tBRS3) [1]; 50 pM [125I]-Tyr42-GRP): 1.14 nM | IC50 (turtle BRS3 (tBRS3) [1]; 50 pM [125I]-Tyr-NMB): 2.82 nM | IC50 (spotted gar BRS3 (sBRS3); 50 pM [125I]-Tyr42-GRP): 1.74 nM | IC50 (spotted gar BRS3 (sBRS3); 50 pM [125I]-Tyr-NMB): 2.65 nM | Ki [2]: > 1000 nM | Direct binding (in words) [2]: no binding | Intracellular Ca2+, mutants vs wild type (in words) (human BRS3 (hBRS3) [3]): remarkable increase of cellular Ca^2+ ions | Intracellular Ca2+, mutants (in words) (mouse BRS3 (mBRS3) [4]): significant increase in cellular Ca^2+ ions levels | Intracellular Ca2+, mutants (in words) (aardvark BRS3 (aBRS3) [5]): significant increase in cellular Ca^2+ ions levels | Intracellular Ca2+, mutants vs wild type (in words) (turtle BRS3 (tBRS3) [6]): remarkable decrease of cellular Ca^2+ ions | ERK phosphorylation, mutant (in words) (human BRS3 (hBRS3) [7]; hBRS3 H294R): could be detected | ERK phosphorylation, mutant (in words) (human BRS3 (hBRS3) [7]; hBRS3 R127Q): could be detected | ERK phosphorylation, mutant (in words) (human BRS3 (hBRS3) [7]; hBRS3 S205P): the effect is not obvious | ERK phosphorylation, mutants (in words) (mouse BRS3 (mBRS3) [8]): lead to ERK phosphorylation signal | ERK phosphorylation, mutants (in words) (aardvark BRS3 (aBRS3) [9]): lead to ERK phosphorylation signal | Luciferase stimulation (in words) [10]: stimulation of luciferase units cannot be detected
